# Reference: the supplement of paper PMC10307832
# Legend:
# Assay in all cases: relative viability (nuclei count vs DMSO), 5 days (fraction); higher = more cells survive
# NCI-H2405 = tested on: NCI-H2405
# Outline: (§1)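 Relative viability is defined as nuclei in treated wells over nuclei in vehicle wells. Duplicate plates were run and medians reported. Lung cancer cell lines in 1536-well plates were dosed by pin tool one day after seeding, with one drug or with a fixed anchor-drug dose plus five library-drug doses (not always all listed) in √10 steps, and nuclei were counted after 5 days.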
# HCC-366 = tested on: HCC-366
# Outline: as §1
# NCI-H522 = tested on: NCI-H522
# Outline: as §1
# HCC-78 = tested on: HCC-78
# Outline: as §1
# COR-L 105 = tested on: COR-L 105
# Outline: as §1
# SK-MES-1 = tested on: SK-MES-1
# Outline: as §1
# NCI-H1993 = tested on: NCI-H1993
# Outline: as §1
# HCC-15 = tested on: HCC-15
# Outline: as §1
# NCI-H647 = tested on: NCI-H647
# Outline: as §1
# EMC-BAC-2 = tested on: EMC-BAC-2
# Outline: as §1
# NCI-H661 = tested on: NCI-H661
# Outline: as §1
smiles,measurement,setting,value
Cc1cn(-c2cc(NC(=O)c3ccc(C)c(Nc4nccc(-c5cccnc5)n4)c3)cc(C(F)(F)F)c2)cn1 [Nilotinib] + CC(=O)Nc1cccc(-n2c(=O)n(C3CC3)c(=O)c3c(Nc4ccc(I)cc4F)n(C)c(=O)c(C)c32)c1 [Trametinib] (partner 0.02 µM),relative viability,NCI-H2405; first compound 0.001 µM,0.504
same,relative viability,NCI-H2405; first compound 0.003162 µM,0.406
same,relative viability,NCI-H2405; first compound 0.01 µM,0.457
same,relative viability,NCI-H2405; first compound 0.03162 µM,0.325
same,relative viability,NCI-H2405; first compound 0.1 µM,0.327
same,relative viability,HCC-366; first compound 0.001 µM,0.35
same,relative viability,HCC-366; first compound 0.003162 µM,0.361
same,relative viability,HCC-366; first compound 0.01 µM,0.327
same,relative viability,HCC-366; first compound 0.03162 µM,0.243
same,relative viability,HCC-366; first compound 0.1 µM,0.145
same,relative viability,NCI-H522; first compound 0.01 µM,0.627
same,relative viability,NCI-H522; first compound 0.03162 µM,0.671
same,relative viability,NCI-H522; first compound 0.1 µM,0.596
same,relative viability,HCC-78; first compound 0.001 µM,0.754
same,relative viability,HCC-78; first compound 0.003162 µM,0.597
same,relative viability,HCC-78; first compound 0.01 µM,0.956
same,relative viability,HCC-78; first compound 0.03162 µM,0.649
same,relative viability,HCC-78; first compound 0.1 µM,0.863
same,relative viability,COR-L 105; first compound 0.001 µM,0.439
same,relative viability,COR-L 105; first compound 0.003162 µM,0.475
same,relative viability,COR-L 105; first compound 0.01 µM,0.533
same,relative viability,COR-L 105; first compound 0.03162 µM,0.396
same,relative viability,COR-L 105; first compound 0.1 µM,0.443
same,relative viability,SK-MES-1; first compound 0.001 µM,0.581
same,relative viability,SK-MES-1; first compound 0.003162 µM,0.482
same,relative viability,SK-MES-1; first compound 0.01 µM,0.492
same,relative viability,SK-MES-1; first compound 0.03162 µM,0.437
same,relative viability,SK-MES-1; first compound 0.1 µM,0.339
same,relative viability,NCI-H1993; first compound 0.001 µM,0.47
same,relative viability,NCI-H1993; first compound 0.003162 µM,0.522
same,relative viability,NCI-H1993; first compound 0.01 µM,0.477
same,relative viability,NCI-H1993; first compound 0.03162 µM,0.507
same,relative viability,NCI-H1993; first compound 0.1 µM,0.494
same,relative viability,HCC-15; first compound 0.001 µM,0.375
same,relative viability,HCC-15; first compound 0.003162 µM,0.357
same,relative viability,HCC-15; first compound 0.01 µM,0.369
same,relative viability,HCC-15; first compound 0.03162 µM,0.284
same,relative viability,HCC-15; first compound 0.1 µM,0.233
same,relative viability,NCI-H647; first compound 0.001 µM,0.363
same,relative viability,NCI-H647; first compound 0.003162 µM,0.614
same,relative viability,NCI-H647; first compound 0.01 µM,0.352
same,relative viability,NCI-H647; first compound 0.03162 µM,0.18
same,relative viability,NCI-H647; first compound 0.1 µM,0.254
same,relative viability,EMC-BAC-2; first compound 0.001 µM,0.874
same,relative viability,EMC-BAC-2; first compound 0.003162 µM,0.697
same,relative viability,EMC-BAC-2; first compound 0.01 µM,0.849
same,relative viability,EMC-BAC-2; first compound 0.03162 µM,0.604
same,relative viability,EMC-BAC-2; first compound 0.1 µM,0.65
same,relative viability,NCI-H661; first compound 0.001 µM,0.49
same,relative viability,NCI-H661; first compound 0.003162 µM,0.593
same,relative viability,NCI-H661; first compound 0.01 µM,0.606
same,relative viability,NCI-H661; first compound 0.03162 µM,0.407
